Test system: pilocarpine model
Experiment: pilocarpine model, oral test compound 10 minutes before intraperitoneal pilocarpine
Assay type: in vivo, Mus musculus or mouse
Procedure: In some instances, the anticonvulsive effects of the composition of the invention have been evaluated in vivo upon oral administration to animals. The pharmaceutical composition of the invention was administered to mammals (Mus musculus or mouse) with oral dose of treatment, as compared to other compounds or to saline control. In these experiments, the test compounds were administered orally 10 minutes prior to the (intraperitoneal) administration of pilocarpine. Pilocarpine hydrochloride (320 mg/kg, Merck), dissolved in 0.9% sterile saline, was given intraperitoneally for induction of SE (status epileticus) (Turski et al., 1983). In the Turski model, the neurotoxic effects begin about 15-25 minutes after the injection of Pilo, with the occurrence of motor and limbic seizures, the animals evolving to a state of continuous (clonic) seizures that characterize SE Sanabria and Cavalheiro, 2000).
In this embodiment, the anticonvulsant effect of the composition of the invention prepared according to example 1 was evaluated by prior administration of the inventive composition and subsequent administration of pilocarpine to animals. Administration of pilocarpine leads to severe brain damage, neurotoxicity, and usually culminates in the death of animals.
The composition of the invention prepared according to Example 1 was pre-administered to the animals.

[1] = 1000 μg/kg oral, group n=5, pilocarpine 320 mg/kg i.p.

Compound | survival time compared with control (FIG. 1) (600 μg/kg oral) | number of animals that died in the group [1] | remaining animals that remained alive for more than a week [1] | mean survival time for the group (1000 μg/kg oral, versus control, Hp 600 μg/kg, DIIADDEPLT 1000 μg/kg) | occurrence of typical side effects of other anticonvulsants, such as prostration and nasal bleeding (oral administration, mice) | brain injury related symptoms and survival after pilocarpine (prior oral administration of the composition of Example 1) | time for the occurrence of the first salivation (FIG. 4) (prior oral administration, pilocarpine-induced salivation) | time for the occurrence of the first seizure (FIG. 6), P vs Control, Hp 600 μg/kg, Pep19 1000 μg/kg (starred group, by exclusion Hp 1000 μg/kg oral) | survival time compared with control (FIG. 1) (1000 μg/kg oral)
CC(C)C[C@H](NC(=O)[C@H](Cc1ccccc1)NC(=O)[C@H](CCCCN)NC(=O)[C@H](Cc1ccccc1)NC(=O)[C@H](CC(N)=O)NC(=O)[C@@H](NC(=O)[C@@H]1CCCN1)C(C)C)C(=O)N[C@@H](CO)C(=O)N[C@@H](Cc1cnc[nH]1)C(=O)O [Hp, PVNFKFLSH] | not statistically significant | one | 4 | significantly different and higher than the others | has not been observed | the vast majority of the animals subjected to these experiments had no brain injury related symptoms and survived without apparent damage | substantial change in the time profile for the occurrence of the first salivation | < 0.001 | 
DIIADDEPLT [peptide used as another control, reference compound] |  |  |  |  |  |  |  |  | not statistically significant
